According to US20240181081A1, “Compositions and Methods for Treatment of Myotonic Dystrophy Type 1 with CRISPR/SACAS9” (Vertex Pharmaceuticals Incorporated, priority 2021, published 2024):

Key:
[1] = test system: CUG RNA foci in primary DM1 patient myoblasts; assay: DOUBLE-cut screening: FISH staining of RNA foci in primary DM1 patient myoblasts; type: cell-based, human; settings: sgRNA pair RNP, 72 hrs post nucleofection; for % of CUG foci free nuclei (DNA-PKi): 3 μM Compound 6 for 48 hrs; for % of CUG foci free nuclei (Vehicle): DMSO 48 hrs
Method in brief: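 Primary DM1 patient myoblasts nucleofected with paired upstream/downstream sgRNA–SaCas9 RNPs (20 pmol protein, 60 pmol sgRNA each), then treated 48 hrs with DMSO or 3 μM DNA-PK inhibitor. At 72 hrs post nucleofection, CUG foci stained by Cy3-PNA(CAG)5 FISH with MBNL1 co-staining and quantified by high-content confocal imaging.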

[2] = test system: CTG repeat expansion in the 3′ UTR of human DMPK gene; assay: DOUBLE-cut screening: CTG repeat excision by loss-of-signal ddPCR in primary DM1 patient myoblasts; type: cell-based; settings: sgRNA pair RNP, mean of upstream and downstream ddPCR assays; for % of CTG repeat excision efficiency by ddPCR (DNA-PKi): 3 μM Compound 6 for 48 hrs; for % of CTG repeat excision efficiency by ddPCR (Vehicle): DMSO 48 hrs
Method in brief: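 Paired upstream/downstream sgRNAs, each as RNP with recombinant SaCas9 (20 pmol protein:60 pmol sgRNA), mixed 1:1 and nucleofected into primary DM1 myoblasts; cells then given DMSO or 3 μM DNA-PKi Compound 6 for 48 hrs. Genomic DNA taken 72 hrs post-nucleofection; excision is mean of upstream and downstream loss-of-signal ddPCR, normalized to DMPK exon 1 reference.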

Row | Substance | % of CUG foci free nuclei (DNA-PKi) [1] | % of CUG foci free nuclei (Vehicle) [1] | % of CTG repeat excision efficiency by ddPCR (DNA-PKi) [2] | % of CTG repeat excision efficiency by ddPCR (Vehicle) [2]
1 | SaU1 + SaD5: SaCas9 sgRNA pair, SEQ ID NOs: 1 and 13 (guide 1 GCCCCGGAGTCGAAGACAGTTC; guide 2 GGGTTTGGCAAAAGCAAATTTC; listed as DNA, chemistry not fully specified) | 82.90% | 70.23% | 53.67% | 30.65%
2 | SaU3 + SaD17: SaCas9 sgRNA pair, SEQ ID NOs: 3 and 25 (guide 1 ACTCCGGGGCCCCGTTGGAAGA; guide 2 TTTATTCGCGAGGGTCGGGGGT; listed as DNA, chemistry not fully specified) | 77.22% | 53.10% | 56.80% | 31.18%
3 | SaU8 +SaD3: SaCas9 sgRNA pair, SEQ ID NOs: 8 and 11 (guide 1 GGCTCGAAGGGTCCTTGTAGCC; guide 2 CAACGATAGGTGGGGGTGCGTG; listed as DNA, chemistry not fully specified) | 82.41% | 57.67% | 59.28% | 48.19%
4 | SaU1 + SaD19: SaCas9 sgRNA pair, SEQ ID NOs: 1 and 27 (guide 1 GCCCCGGAGTCGAAGACAGTTC; guide 2 AGGACCCCCACCCCCGACCCTC; listed as DNA, chemistry not fully specified) | 76.49% | 49.44% | 52.62% | 32.74%
5 | SaU4 + SaD12: SaCas9 sgRNA pair, SEQ ID NOs: 4 and 20 (guide 1 CCAGTTCACAACCGCTCCGAGC; guide 2 TCAGTGCATCCAAAACGTGGAT; listed as DNA, chemistry not fully specified) | 87.22% | 82.10% | 59.06% | 42.13%
6 | SaU1 + SaD3: SaCas9 sgRNA pair, SEQ ID NOs: 1 and 11 (guide 1 GCCCCGGAGTCGAAGACAGTTC; guide 2 CAACGATAGGTGGGGGTGCGTG; listed as DNA, chemistry not fully specified) | 81.32% | 47.32% | 52.18% | 33.47%
7 | SaU7 + SaD6: SaCas9 sgRNA pair, SEQ ID NOs: 7 and 14 (guide 1 CGCGGCCGGCGAACGGGGCTCG; guide 2 CTTTTGCCAAACCCGCTTTTTC; listed as DNA, chemistry not fully specified) | 67.73% | 24.89% | 55.71% | 22.54%
8 | SaU3 + SaD15: SaCas9 sgRNA pair, SEQ ID NOs: 3 and 23 (guide 1 ACTCCGGGGCCCCGTTGGAAGA; guide 2 GACAATAAATACCGAGGAATGT; listed as DNA, chemistry not fully specified) | 86.64% | 74.00% | 65.28% | 37.42%
9 | SaU7 + SaD15: SaCas9 sgRNA pair, SEQ ID NOs: 7 and 23 (guide 1 CGCGGCCGGCGAACGGGGCTCG; guide 2 GACAATAAATACCGAGGAATGT; listed as DNA, chemistry not fully specified) | 89.69% | 64.62% | 66.66% | 36.65%
10 | SaU8 + SaD19: SaCas9 sgRNA pair, SEQ ID NOs: 8 and 27 (guide 1 GGCTCGAAGGGTCCTTGTAGCC; guide 2 AGGACCCCCACCCCCGACCCTC; listed as DNA, chemistry not fully specified) | 83.45% | 61.41% | 46.04% | 28.95%
11 | SaU3 + SaD18: SaCas9 sgRNA pair, SEQ ID NOs: 3 and 26 (guide 1 ACTCCGGGGCCCCGTTGGAAGA; guide 2 GGGCCTTTTATTCGCGAGGGTC; listed as DNA, chemistry not fully specified) | 71.73% | 33.15% | 50.13% | 21.51%
12 | SaU7 +SaD20: SaCas9 sgRNA pair, SEQ ID NOs: 7 and 28 (guide 1 CGCGGCCGGCGAACGGGGCTCG; guide 2 AGATGGAGGGCCTTTTATTCGC; listed as DNA, chemistry not fully specified) | 83.24% | 63.33% | 67.93% | 39.72%
13 | SaU3 + SaD10: SaCas9 sgRNA pair, SEQ ID NOs: 3 and 18 (guide 1 ACTCCGGGGCCCCGTTGGAAGA; guide 2 TTGGGGGTCCTGTAGCCTGTCA; listed as DNA, chemistry not fully specified) | 86.88% | 75.19% | 69.50% | 44.56%
14 | SaU3 + SaD19: SaCas9 sgRNA pair, SEQ ID NOs: 3 and 27 (guide 1 ACTCCGGGGCCCCGTTGGAAGA; guide 2 AGGACCCCCACCCCCGACCCTC; listed as DNA, chemistry not fully specified) | 81.67% | 57.16% | 53.36% | 32.67%
15 | SaU8 + SaD7: SaCas9 sgRNA pair, SEQ ID NOs: 8 and 15 (guide 1 GGCTCGAAGGGTCCTTGTAGCC; guide 2 GGGGCGCGGGATCCCCGAAAAA; listed as DNA, chemistry not fully specified) | 82.90% | 52.92% | 53.42% | 38.19%
16 | SaU1 + SaD7: SaCas9 sgRNA pair, SEQ ID NOs: 1 and 15 (guide 1 GCCCCGGAGTCGAAGACAGTTC; guide 2 GGGGCGCGGGATCCCCGAAAAA; listed as DNA, chemistry not fully specified) | 80.16% | 49.51% | 56.69% | 34.21%
17 | SaU7 + SaD12: SaCas9 sgRNA pair, SEQ ID NOs: 7 and 20 (guide 1 CGCGGCCGGCGAACGGGGCTCG; guide 2 TCAGTGCATCCAAAACGTGGAT; listed as DNA, chemistry not fully specified) | 86.06% | 66.41% | 62.84% | 39.71%
18 | SaU8 + SaD12: SaCas9 sgRNA pair, SEQ ID NOs: 8 and 20 (guide 1 GGCTCGAAGGGTCCTTGTAGCC; guide 2 TCAGTGCATCCAAAACGTGGAT; listed as DNA, chemistry not fully specified) | 85.37% | 76.92% | 55.46% | 36.64%
19 | SaU1 + SaD2: SaCas9 sgRNA pair, SEQ ID NOs: 1 and 10 (guide 1 GCCCCGGAGTCGAAGACAGTTC; guide 2 TCGGCCAGGCTGAGGCCCTGAC; listed as DNA, chemistry not fully specified) | 84.27% | 76.74% | 54.31% | 47.82%
20 | SaU3 + SaD20: SaCas9 sgRNA pair, SEQ ID NOs: 3 and 28 (guide 1 ACTCCGGGGCCCCGTTGGAAGA; guide 2 AGATGGAGGGCCTTTTATTCGC; listed as DNA, chemistry not fully specified) | 83.99% | 72.56% | 64.44% | 40.12%
21 | SaU2 + SaD6: SaCas9 sgRNA pair, SEQ ID NOs: 2 and 14 (guide 1 ACTCAGTCTTCCAACGGGGCCC; guide 2 CTTTTGCCAAACCCGCTTTTTC; listed as DNA, chemistry not fully specified) | 65.23% | 31.53% | 45.77% | 24.88%
